Experimental data from ChEMBL document CHEMBL1146184, “Drug self-association modulates the cellular bioavailability of DNA minor groove-directed terbenzimidazoles” (J Med Chem, 2006).

Assays:
Assay type in all cases: ADME, cell-based
RPMI 8402 [1] = test: Uptake in human RPMI8402 cells at 1 uM after 0.5 hrs; conditions: rpmi 8402, 0.5 h
RPMI 8402 [2] = test: Uptake in human RPMI8402 cells at 1 uM after 4 hrs; conditions: rpmi 8402, 4 h
RPMI 8402 [3] = test: Uptake in human RPMI8402 cells at 1 uM after 1 hr; conditions: rpmi 8402, 1 h
RPMI 8402 [4] = test: Uptake in human RPMI8402 cells at 1 uM after 2 hrs; conditions: rpmi 8402, 2 h

Structure (SMILES)	Drug uptake (RPMI 8402 [1]) [%]	Drug uptake (RPMI 8402 [2]) [%]	Drug uptake (RPMI 8402 [3]) [%]	Drug uptake (RPMI 8402 [4]) [%]
c1ccc(-c2ccc3[nH]c(-c4ccc5[nH]c(-c6ccc7cc[nH]c7c6)nc5c4)nc3c2)cc1	18	30	–	–
c1ccc(-c2ccc3[nH]c(-c4ccc5[nH]c(-c6ccc7[nH]cnc7c6)nc5c4)nc3c2)cc1	3	3	3	3
